Laboratory results from patent publication US20110086872A1, “Berberine as a selective lung cancer agent and other compositions and methods” (priority 2007, published 2011).
pIC50: −log10 of the molar value. Where two headings read alike, the source gives them in different places.

Legend:
[1] = test system: human cancer cell lines tested; assay: Cytotoxic activity against panel of human cancer cell lines; format: cell-based
[2] = test system: Breast, BC1 human cancer cell line; conditions: cited from earlier work
[3] = test system: W2 clone of P. falciparum; conditions: Vennestrom and Klayman, 1988; read-out: literature IC50 against W2 clone of P. falciparum; cited from earlier work
[4] = test system: D6 clone of P. falciparum; assay: Antimalarial activity, D6 clone; format: cell-based
Procedure: (§1) The plant partitions were evaluated using in vitro bioassays based on a panel of human cancer cell lines: BC, Human Breast; Col2, Human Colon; KB, Human Carcinoma of the Nasopharynx; KBV1, Vinblastine-resistant KB; LNCaP, Hormone-dependent Human Prostate, and ZR75-1, Hormone-dependent Human Breast. These lines represent the main priorities for anticancer screening of the National Cancer Institute and have been well documented (Lin et al., J. Nat. Prod. 56: 22-29 (1993). In addition, samples were evaluated against the HIV-1 reverse transcriptase assay and, if active, against HIV-2 RT assay and a TIBO-resistant HIV-1 strain. Furthermore, some samples were tested for antimalarial activity (Angerhofer, Advances in Natural Products Chemistry, ed. Atta-ur-Rahman, pp 311-329 (1992)).
(§2) Thus, extracts, fractions and isolated compounds of plants were evaluated against three basic disease states: cancer, AIDS and malaria according to the published and established protocols and procedures. […] ((Angerhofer, Advances in Natural Products Chemistry, ed. Atta-ur-Rahman, pp 311-329 (1992), Monks et al., J. Nat'l Cancer Inst. 83: 11, 757-766 (1991), Tan et al., J. Nat. Product 54:143-154 (1991), Tan et al., Biochem. Biophysics. Res. Commun. 185:370-378 (1992), Geran et al., Cancer Chemother. Rep., Part 3, 3: 1-17 (1972), Skehan et al., J. Nat'l Cancer Inst. 82:1107-1112 (1990).) […]

[5] = molecular target: T1, human immunodeficiency virus-1 reverse transcriptase (HIV-1 RT) (Human immunodeficiency virus type 1 group M subtype B, UniProt P03366); format: biochemical; conditions: no unit or quantity printed
T1 construct: human immunodeficiency virus-1 reverse transcriptase (HIV-1 RT)
Procedure: as §1
Thus, extracts, fractions and isolated compounds of plants were evaluated against three basic disease states: cancer, AIDS and malaria according to the published and established protocols and procedures. […] ((Angerhofer, Advances in Natural Products Chemistry, ed. Atta-ur-Rahman, pp 311-329 (1992), Monks et al., J. Nat'l Cancer Inst. 83: 11, 757-766 (1991), Tan et al., J. Nat. Product 54:143-154 (1991), Tan et al., Biochem. Biophysics. Res. Commun. 185:370-378 (1992), Geran et al., Cancer Chemother. Rep., Part 3, 3: 1-17 (1972), Skehan et al., J. Nat'l Cancer Inst. 82:1107-1112 (1990).)

[6] = test system: D6 clone of P. falciparum; conditions: Vennestrom and Klayman, 1988; read-out: literature IC50 against D6 clone of P. falciparum; cited from earlier work
[7] = test system: Colon, Col 2 human cancer cell line; conditions: cited from earlier work
[8] = test system: Lung, Lu1 human cancer cell line; conditions: cited from earlier work
[9] = test system: W2 clone of P. falciparum; assay: Antimalarial activity, W2 clone; format: cell-based
Procedure: as §1, §2

[10] = test system: Lu1 human lung cancer cell line; assay: Cytotoxic activity against Lu1 cancer cell line; format: cell-based; conditions: pure isolates
Procedure: The CHCl3 was fractionated over a silica gel column (5×60 cm, 700 g, 63-200 μm). For the column chromatography, a CHCl3/MeOH gradient solvent system was applied with a gradual increase of the MeOH content. Fourteen fractions were collected based on the similarity of their TLC profiles. The fractions were then evaluated for their cytotoxic activity against Lu1 cancer cell line in order to determine the active fractions. […] (See FIG. 4, Table 2).

SMILES | pIC50 ([1]; all cell lines of the panel, read-out: IC50 values against all of the human cancer cell lines tested) | pIC50 [2] | pIC50 [3] | selectivity index (SI), D6 ([4]; D6 clone) | pIC50 ([4]; Plasmodium falciparum, D6, read-out: IC50 against D6 clone of P. falciparum) | anti-HIV activity against HIV-1 RT, value [5] | pIC50 ([1]; Homo sapiens, cancer cell lines other than lung, read-out: IC50 values, other cancer cell lines tested) | pIC50 [6] | pIC50 [7] | pIC50 [8] | pIC50 ([9]; Plasmodium falciparum, W2, read-out: IC50 against W2 clone of P. falciparum) | selectivity index (SI), W2 ([9]; W2 clone) | pIC50 [10]
COc1ccc2c(c1OC)C(=O)N1CCc3cc4c(cc3C(=O)C21O)OCO4 (racemic) [(±)-Chilenine] | 4.48 to 4.80 |  |  |  |  |  |  |  |  |  |  |  | 
COc1ccc2cc3[n+](cc2c1OC)CCc1cc2c(cc1-3)OCO2 [berberine] |  | 5.56 | 6.36 | 53.6 | 5.96 | 353.3 | < 4.23 | 6.38 | 4.40 | 4.60 | 5.49 | 18.7 | 4.92
